Patent US20240299393A1, “SMALL MOLECULE DISRUPTORS OF PROTEIN INTERACTIONS IN HISTONE DEACETYLASE COMPLEXES” (Dana-Farber Cancer Institute, Inc., priority 2021, published 2024)
“Also recorded” adds a separate entry of the source.

Assays:
[1] = target: T1, PAH2 domain of yeast Sin3 (Saccharomyces cerevisiae, UniProt P22579); experiment: Ligand-detected NMR (DLB, STD, CPMG-R2), yeast Sin3 PAH2; assay type: binding, S. cerevisiae; details: 300 μM compound, 10 μM protein
T1 construct: Residues 402-473 of S. cerevisiae Sin3 (PAH2 domain) were inserted into pET28PP, pMALC2XE, and pGEX6P2; made in house; host or cells: E. coli BL21 (DE3)
Protocol: (§1) Ligand-detected NMR experiments: all results were acquired using a 3 mm tube at 25° C. on a Bruker 600 MHz Avance II system equipped with a CPPTCI cryoprobe (Bruker BioSpin Corp.). In all experiments, the concentration of E6R was fixed at 300 μM (from a stock of 25 mM in deuterated DMSO) and the concentration of the protein at 10 μM. The volume of deuterated DMSO was kept constant (1.5%) in all tested samples. Right before the experiments, the compound and protein were diluted in 1×PBS containing 0.1% deuterated dithiothreitol (DTT) to a total volume of 200 μL. Samples were diluted by 5% with D2O for magnetic field lock. Spectra were acquired for ligand only, protein only, and ligand+protein. […] STD experiments [Mayer et al 2001] were acquired with 160 scans, with protein irradiation applied for 3 s at 0 ppm and −20 ppm for the on and off resonance experiments, respectively. On and off resonance spectra were collected and stored separately. One-dimensional CPMG-R2 edited experiments [Hajduk et al 1997] were collected for samples with and without proteins using seven CPMG delays (0, 25, 50, 100, 300, 500, and 800 ms) with four scans per delay. Proton spectra used to measure DLB and chemical shift perturbations in the absence and presence of the proteins were recorded with 16 scans using a recycle delay of 3 s. […]

[2] = test system: PAH1 and PAH3 domains of human SIN3A and SIN3B; experiment: Ligand-detected NMR, human SIN3A and SIN3B PAH1 and PAH3; assay type: binding, H. sapiens; details: FIG. 28
Protocol: as §1

[3] = test system: HDAC-regulated genes in spleen and frontal cortex; experiment: Pilot RT-qPCR in spleen and frontal cortex of treated mice; assay type: in vivo, mouse; details: 5, 15 or 50 mg/kg, chronic
Protocol: For the pilot RT-qPCR experiment, in addition to the vehicle condition (ethanol 100%/kolliphor/saline 0.9% in a proportion of 1:1:14.4; for the 50 mg/kg dose, 14 μL NaOH 1M were also added), three doses (mg/kg) of E6R were tested: 5, 15, and 50, with 4 (vehicle) or 3 (E6R) animals per group. A dose of 50 mg/kg was picked to conduct further experiments. For the RNA-Seq experiment, E6R was dissolved in a vehicle solution containing saline 55% v/v, DMSO 34% v/v, ethanol 5% v/v, kolliphor EL (Sigma-Aldrich, MO, USA) 5% v/v, NaOH 1M 1% v/v. The vehicle group received the same solution. Animals were injected daily by intraperitoneal (I.P.) injection with 5 μL/g of the solution (50 mg/kg of the drug or vehicle) at 11 am for 10 days. Animal wellness was verified by daily visual inspection and weighing. […] On the 11th day, animals were sacrificed by bleeding via heart puncture under carbon dioxide anesthesia. The brains were quickly removed and the bilateral frontal cortex (bregma 1.90 to 1.40 mm) was dissected followed by total RNA extraction. The spleens were also collected in the pilot RT-qPCR experiments.
Qiagen™ RNeasy mini kits (Valencia, CA) were used following the manufacturer's protocol. […] Purity of the RNA preparation was determined as the 260/280 nm ratio with expected values between 2 and 2.3. […]

T1 sequence (P22579 402-473): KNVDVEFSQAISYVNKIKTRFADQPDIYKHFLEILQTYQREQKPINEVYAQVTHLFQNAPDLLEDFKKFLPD

C[C@@H](NC(=O)c1c(O)n2ccccc2nc1=O)c1ccccc1 [E6R, 4-hydroxy-2-oxo-N—((R)-1-phenylethyl)-3,4-dihydro-2H-pyrido[, 2-a]pyrimidine-3-carboxamide]
binding to yeast Sin3 PAH2 by NMR [1]: Sin3 PAH2 binder; also recorded: bound state | binding to other PAH domains of human SIN3A and SIN3B by NMR [2]: can bind | expression levels of tested genes in spleen and frontal cortex [3]: able to change expression levels
